The record followed here is US8097422B2, “Kir channel modulators” (Salk Institute for Biological Studies, priority 2007, dated 2012).

Test [1] concerns the target T1, GIRK2 channel (wild type) (Mus musculus, UniProt P48542).
T1 construct: expressed in transfected cells; host or cells: HEK293T
T1 sequence (P48542 1-425): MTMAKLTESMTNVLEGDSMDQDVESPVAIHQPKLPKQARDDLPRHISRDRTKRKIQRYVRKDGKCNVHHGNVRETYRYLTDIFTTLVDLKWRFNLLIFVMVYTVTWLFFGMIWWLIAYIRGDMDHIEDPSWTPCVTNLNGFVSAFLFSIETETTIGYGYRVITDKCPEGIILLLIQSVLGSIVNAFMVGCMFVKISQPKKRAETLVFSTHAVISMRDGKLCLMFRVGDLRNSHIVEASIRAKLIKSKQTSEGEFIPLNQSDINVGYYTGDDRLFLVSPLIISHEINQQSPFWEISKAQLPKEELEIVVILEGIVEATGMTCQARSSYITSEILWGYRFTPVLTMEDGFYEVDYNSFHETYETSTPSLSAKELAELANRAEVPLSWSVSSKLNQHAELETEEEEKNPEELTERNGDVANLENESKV
Description: whole-cell patch clamp, HEK293T cells transfected with GIRK2. The class given is cell-based. Conditions: for desensitization of induced GIRK2 current in cells co-transfected with M2R and myristylated-phosducin / activation of wildtype GIRK2, percentage change from Ba++ sensitive basal current: 100 mM alcohols; for desensitization of induced GIRK2 current in cells co-transfected with M2R and myristylated-phosducin: 5 uM Carbachol. An excerpt:
GIRK2c, GIRK4, IRK1, M2R and m-Phosducin were subcloned into PCDNA3.1 vector (Invitrogen). Point mutations were introduced by Quickchange site directed mutagenesis kit (Stratagene). The GIRK2 PIP mutant was generated by overlap-PCR method. Briefly, amino acid 216-NLRKSHL-222 (SEQ ID NO: 25) of IRK1 was swapped into 228-DLRNSHL-234 (SEQ ID NO: 26) of GIRK2, in the region designated βC-βD loop in the crystal structure. Mutations were confirmed by automated DNA sequencing methods.
HEK 293T cells were cultured in DMEM supplemented with 10% FBS, and 1× Glutamax (Invitrogen) in a humidified 37° incubator with 5% CO2. Cells were plated in a 12 well dish, and were transiently transfected using Lipofectamine 2000 (Invitrogen). After 12-24 hrs, cells were re-plated to 12-mm glass coverslips coated with poly-D-Lysine (20 microgram/ml).
HEK293 cells were transfected with 0.2 micrograms of channel cDNA. The cells were co-transfected with 0.04 micrograms of eYFP cDNA to identify transfected cells. 0.8 micrograms of Muscarinic Receptor 2 (M2R) was also co-transfected for experiments with Carbachol. For experiments with and without m-phosducin, 0.8 ug of m-phosducin cDNA was used versus a PCDNA3.1 vector control.
Whole-cell patch clamp recordings were performed 24-72 hrs after transfection. Borosilicate glass electrodes (Warner Instruments) of […] filled with intracellular solution (130 mM KCl, 20 mM NaCl, 5 mM EGTA, 2.56 mM K2ATP, 5.46 mM MgCl2, 0.30 mM Li2GTP, and 10 mM HEPES (pH 7.4)) was used. Membrane currents were recorded using Axopatch 200B (Axon Instruments) amplifier, adjusted electronically for cell capacitance and series resistance (80-100%), filtered at 1 kHz with an 8-pole Bessel filter and digitized at 5 kHz with a Digidata 1200 interface (Axon Instruments). The cells rapidly perfused with a 20 mM K^+ (20K) solution (20 mM KCl, 140 mM NaCl, 0.5 mM CaCl2, 2 mM MgCl2 and 10 mM HEPES (pH7.4)). Alcohols, 5 μM Carbachol, and 1 mM BaCl2 (diluted in 20K solution) were applied from outside the cell with the rapid perfusion system (Warner Instruments). Whole-cell currents were measured using a ramp protocol that holds at −40 mV, steps to −100 mV then ramps to +50 mV and repeats every 2 seconds. Current-voltage relationships also were obtained from the ramp protocol. This protocol was used to measure the inwardly rectifying currents at −100 mV and to ensure stability of recording by monitoring a reversal potential and inward rectification. Current density was measured by dividing inward current at −100 mV by membrane capacitance that was compensated during the recording. Basal currents were measured as the Ba^++ blocked inward currents at −100 mV. Alcohol and Carbachol modulated currents were measured by averaging two consecutive current readings upon reaching steady state, and subtracting the averaged basal current before and after the application of modulator. Pooled data are presented as Mean±SEM and evaluated for statistical significance by a 1-way ANOVA, followed by Bonferroni's multiple comparison post-hoc test.

Test [2] concerns the target T2, GIRK2 PIP channel (Mus musculus, UniProt P48542, D228N/I234L/N231K).
T2 construct: expressed in transfected cells; host or cells: HEK293 / HEK293T
T2 sequence (P48542 1-425 D228N/N231K/I234L): T1 sequence (P48542 1-425) with D228N, N231K, I234L
Description: whole-cell patch clamp, GIRK2 PIP chimeric channel. Conditions: equimolar alcohol series (50 mM). The class given is cell-based. A general note: Patch clamp records ionic current or voltage across a cell membrane.
Description: To test whether this sensitivity to inhibition would be altered by mutation at the MPD-bound hydrophobic pocket, Leu257 was mutated to Trp for this channel.
Whole-cell patch clamp recordings were performed 24-72 hrs after transfection. Borosilicate glass electrodes (Warner Instruments) of 5-7 milliohms filled with intracellular solution (130 mM KCl, 20 mM NaCl, 5 mM EGTA, 2.56 mM K2ATP, 5.46 mM MgCl2, 0.30 mM Li2GTP, and 10 mM HEPES (pH 7.4)) was used. Membrane currents were recorded using Axopatch 200B (Axon Instruments) amplifier, adjusted electronically for cell capacitance and series resistance (80-100%), filtered at 1 kHz with an 8-pole Bessel filter and digitized at 5 kHz with a Digidata 1200 interface (Axon Instruments). The cells rapidly perfused with a 20 mM K^+ (20K) solution (20 mM KCl, 140 mM NaCl, 0.5 mM CaCl2, 2 mM MgCl2 and 10 mM HEPES (pH7.4)). Alcohols, 5 μM Carbachol, and 1 mM BaCl2 (diluted in 20K solution) were applied from outside the cell with the rapid perfusion system (Warner Instruments). Whole-cell currents were measured using a ramp protocol that holds at −40 mV, steps to −100 mV then ramps to +50 mV and repeats every 2 seconds. Current-voltage relationships also were obtained from the ramp protocol. This protocol was used to measure the inwardly rectifying currents at −100 mV and to ensure stability of recording by monitoring a reversal potential and inward rectification. Current density was measured by dividing inward current at −100 mV by membrane capacitance that was compensated during the recording. Basal currents were measured as the Ba^++ blocked inward currents at −100 mV. Alcohol and Carbachol modulated currents were measured by averaging two consecutive current readings upon reaching steady state, and subtracting the averaged basal current before and after the application of modulator. Pooled data are presented as Mean±SEM and evaluated for statistical significance by a 1-way ANOVA, followed by Bonferroni's multiple comparison post-hoc test.

Where a chain is given by its changes, count along the chain named.

Regarding 1-propanol [1-PrOH], the “desensitization of induced GIRK2 current in cells co-transfected with M2R and myristylated-phosducin” value (“desensitization of induced GIRK2 current” for short) in test [1] is listed as “no desensitization”. For the same molecule, in test [1] (n=32), the “activation of wildtype GIRK2, percentage change from Ba++ sensitive basal current” value is on record as 486±34%. In test [2], the “inhibition of GIRK2 PIP channel, percentage inhibition” value (“inhibition … percentage inhibition” below) was −87±2%.
Regarding `C[N+](C)(C)CCOC(N)=O` [Carbachol], the “G-protein activation of wildtype GIRK2 by Carbachol, percentage change from basal current” value in test [1] (5 μM Carbachol, M2R co-transfected, n=32) is 928±141%. The “desensitization of induced GIRK2 current” value in test [1] was “rapid activation and desensitization”.
Regarding 1-butanol [1-BuOH], the “inhibition … percentage inhibition” value in test [2] is given as −97±1%.
In the case of `CCO` [EtOH, ethanol], in test [1], the “desensitization of induced GIRK2 current” value is reported as “no desensitization”. For the same molecule, the “activation of wildtype GIRK2, percentage change from Ba++ sensitive basal current” value in test [1] (n=32) is listed as 119±5%. The “inhibition … percentage inhibition” value in test [2] is on record as −18±2%.
As for `CC(O)CC(C)(C)O` (racemic) [MPD, 2-methyl-2,4-pentanediol], in test [1] (100 mM MPD, -100 mV, n=5), the “percent change of basal current, GIRK2 (positive = activation)” value is reported as 246±26.7%. In addition, in test [1], the “desensitization of induced GIRK2 current” value is “no desensitization”. Also, the “activation of wildtype GIRK2, percentage change from Ba++ sensitive basal current” value in test [1] (n=32) came to 305±19%. Also, in test [1] (dose response, GIRK2), the “concentration inducing a noticeable activation of GIRK currents” value is recorded as 10 mM. Besides, the “inhibition … percentage inhibition” value in test [2] was −80±2%.
